Where “and” joins values, the source holds several entries; their conditions need not be identical. Equal entries are not always repeated. Where two headings read alike, the source gives them in different places. Values belong to the compound of their own block, whether it stands above or below them.
Assays:
A3-YFP = A3-YFP receptor internalization (granularity analysis) in CHO A3-YFP cells
human A3AR [1] = target: T1, human A3AR (Homo sapiens, UniProt P0DMS8); experiment: High-content fluorescent ligand (CA200645) competition binding assay in live CHO CRE-SPAP cells expressing the A3AR; conditions: for remaining binding at 1000 µM: read-out: % of CA200645 binding (% DMSO control)
T1 sequence (P0DMS8 1-318): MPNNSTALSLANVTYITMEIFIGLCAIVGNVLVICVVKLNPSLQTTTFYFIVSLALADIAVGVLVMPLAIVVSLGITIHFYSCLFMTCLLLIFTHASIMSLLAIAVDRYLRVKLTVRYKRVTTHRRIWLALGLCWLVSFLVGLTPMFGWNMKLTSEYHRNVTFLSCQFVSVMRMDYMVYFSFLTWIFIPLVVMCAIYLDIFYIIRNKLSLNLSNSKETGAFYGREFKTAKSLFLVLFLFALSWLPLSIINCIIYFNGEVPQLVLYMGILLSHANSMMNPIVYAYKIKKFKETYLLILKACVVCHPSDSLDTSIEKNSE

human A3AR [2] = target: T1, human A3AR; experiment: cell-based
human A1AR [3] = target: T2, human A1AR (Homo sapiens, UniProt P30542); experiment: cell-based
T2 sequence (P30542 1-326): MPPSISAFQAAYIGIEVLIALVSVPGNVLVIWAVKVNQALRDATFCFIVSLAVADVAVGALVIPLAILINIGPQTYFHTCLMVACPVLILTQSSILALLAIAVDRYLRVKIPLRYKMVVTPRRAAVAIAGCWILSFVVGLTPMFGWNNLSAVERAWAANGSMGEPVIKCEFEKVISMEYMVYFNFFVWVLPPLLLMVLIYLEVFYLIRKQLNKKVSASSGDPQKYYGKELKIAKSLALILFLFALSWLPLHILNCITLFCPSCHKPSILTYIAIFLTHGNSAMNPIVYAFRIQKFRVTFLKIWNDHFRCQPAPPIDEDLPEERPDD

human A3AR [4] = target: T1, human A3AR; experiment: CRE-SPAP gene transcription assay (shift of NECA-mediated inhibition of forskolin-stimulated SPAP response)
human A1AR [5] = target: T2, human A1AR; experiment: High-content fluorescent ligand (CA200645) competition binding assay in live CHO-A1 cells; conditions: for inhibition at 10 µM: read-out: inhibition of CA200645 binding at the A1AR; for A1 % inhibition (Table S3): top concentration of compound tested, quoted where less than 50% inhibition of total binding
human A3AR [6] = target: T1, human A3AR
human A1AR [7] = target: T2, human A1AR
[8] = A3 pKi (Table S3), mean ± s.e.m
[9] = pKi at the adenosine A3 receptor (Table S2), mean ± s.e.m from 3 separate experiments

Compound: Nc1cccc(-c2nc3ccccc3[nH]2)c1 [Compound 8]
- Ki (human A3AR [2]): 3.24 µM

Compound: COc1ccc(-n2nc3c(=O)[nH]c4ccccc4n3c2=O)cc1 [Compound 2]
- Ki (human A3AR [2]): 0.0776 µM

Compound: COc1ccc(NC(C)=O)cc1 [Compound 7]
- Ki (human A3AR [2]): 20.4 µM

Compound: O=C(Nc1cnc2ccccc2c1)c1ccccc1 [Compound 4]
- Ki (human A3AR [2]): > 100 µM

Compound: CNC(=O)[C@H]1O[C@@H](n2cnc3c(NCc4cccc(I)c4)ncnc32)[C@H](O)[C@@H]1O [IB-MECA]
- A3-YFP internalization / agonist action (A3-YFP): caused A3-YFP internalisztion

Compound: COc1ccc(-n2nc3c(NC(=O)c4ccccc4)nc4ccccc4n3c2=O)cc1 [Compound 1]
- Ki (human A3AR [2]): 0.00309 µM
- Ki (human A1AR [3]): 1.17 µM
- Kb (human A3AR [4]): 0.00166 µM

Compound: COc1ccc(-n2ccnc2)cc1 [Compound 6]
- Ki (human A3AR [2]): 525 µM

Compound: CNC(=O)[C@H]1O[C@@H](n2cnc3c(NCc4cccc(I)c4)nc(Cl)nc32)[C@H](O)[C@@H]1O [2-Cl IB-MECA]
- A3-YFP internalization / agonist action (A3-YFP): stimulated A3-YFP internalization

Compound: Nc1ccc2[nH]ncc2c1 [AC 30454]
- Ki (human A3AR [1]; [9]): 3.16 µM
- remaining binding at 1000 µM (human A3AR [1]): 13%

Compound: COc1ccc(NN=c2[nH]c3ccccc3[nH]c2=O)cc1 [Compound 3]
- Ki (human A3AR [2]): 2.63 µM

Compound: CCNC(=O)[C@H]1O[C@@H](n2cnc3c(N)nc(NCCc4ccc(CCC(=O)O)cc4)nc32)[C@H](O)[C@@H]1O [CGS 21680, reference compound]
- displacement of CA200645 binding (human A3AR [1]; A3AR, agonist competition curves): only partial displacement

Compound: Cc1cc(N)c(N)cc1Cl [TL 00770]
- Ki (human A3AR [1]; [9]): 1 µM
- remaining binding at 1000 µM (human A3AR [1]): 23.5%

Compound: Cc1cc2cc(N)ccc2[nH]1 [AC 34875]
- Ki (human A3AR [1]; [9]): 1.2 µM
- remaining binding at 1000 µM (human A3AR [1]): 10.4%

Compound: Nc1ccc(C(F)(F)F)cc1N [BTB 07340]
- Ki (human A3AR [1]; [9]): 2.95 µM
- remaining binding at 1000 µM (human A3AR [1]): 10.3%

Compound: Nc1cnc2ccccc2c1 [Compound 5]
- Ki (human A3AR [2]): > 10000 µM

Compound: Nc1nc2ccc(Cl)cc2c2nc(-c3ccco3)nn12 [CGS 15943, reference compound]
- Ki (human A3AR [2]): 0.00661 µM

Now from value to compound, other results behind:

- pIC50 for inhibition of CA200645 binding (agonists) (human A3AR [1]; A3AR, n = 4): 7.23 ± 0.23
Compound: CCCCC#Cc1nc(NC)c2ncn([C@@H]3O[C@H](CO)[C@@H](O)[C@H]3O)c2n1 [HEMADO, reference compound]
- A3-YFP internalization / agonist action (A3-YFP): stimulated A3-YFP internalization

- Ki (human A3AR [2]): 0.186 µM
Compound: Nc1nc2c(cnn2CCc2ccccc2)c2nc(-c3ccco3)nn12 [SCH 58261, reference compound]

- Ki (human A3AR [2]): 0.363 µM and 0.331 µM
- remaining binding at 1000 µM (human A3AR [1]): 36.3%
Compound: Nc1ccccc1-c1nc2ccccc2[nH]1 [DP 01095]

- inhibition at 10 µM (human A1AR [5]): < 50%
- A1 % inhibition (Table S3) (human A1AR [5]): 40.6 ± 7.3%
- Ki (human A3AR [1]; [8]): 0.166 µM
Compound: O=C(Nc1ccccc1-c1nc2ccccc2[nH]1)c1ccco1 [Compound 11]

- inhibition at 10 µM (human A1AR [5]): < 50%
- A1 % inhibition (Table S3) (human A1AR [5]): 38.9 ± 8.3%
- fold increase in A3AR affinity compared to DP01095 (human A3AR [1]): 3 fold
- Ki (human A3AR [1]; [8]): 0.0977 µM
Compound: O=C(Nc1ccccc1-c1nc2ccccc2[nH]1)c1cccnc1 [Compound 10]

- Ki (human A3AR [2]): 0.182 µM
- Kb (human A3AR [4]): 0.407 µM
Compound: Nc1nc(NCCc2ccc(O)cc2)nc2nc(-c3ccco3)nn12 [ZM 241385, reference compound]

- Ki (human A3AR [1]; [9]): 0.794 µM
- remaining binding at 1000 µM (human A3AR [1]): 31.1%
Compound: COC(=O)C1Cc2ccccc2N1 (centres unmarked) [MO 00997]

- inhibition at 10 µM (human A1AR [5]): < 50%
- A1 % inhibition (Table S3) (human A1AR [5]): 47.9 ± 9.7%
- Ki (human A3AR [1]; [8]): 0.257 µM
Compound: O=C(Nc1ccccc1-c1nc2ccccc2[nH]1)c1cccs1 [Compound 12]

- inhibition at 100 µM (human A3AR [1]; read-out: % inhibition of CA200645 binding at A3AR): 41.2 ± 7.3%
Compound: Nc1ccc(-c2nc3ccccc3[nH]2)cc1 [Compound 9]

- Ki (human A3AR [6]): 0.0562 µM
- Ki (human A1AR [7]): 0.0417 µM
Compound: CCCn1c(=O)[nH]c2nc(-c3ccc(S(=O)(=O)N4CCN(c5ccc(Cl)cc5)CC4)cc3)[nH]c2c1=O [PSB 603]

Reference: article PMC3456874, “Fragment Screening at Adenosine-A3 Receptors in Living Cells Using a Fluorescence-Based Binding Assay” (Chemistry & Biology, 2012)
